# Experimental data as given in ChEMBL document CHEMBL1641384, “QSAR of adenosine receptor antagonists: Exploring physicochemical requirements for binding of pyrazolo[4,3-e]-1,2,4-triazolo[1,5-c]pyrimidine derivatives with human adenosine A(3) receptor subtype” (Bioorg Med Chem Lett, 2011).
# Biological target: T1, Adenosine receptor A3 (Homo sapiens, UniProt P0DMS8)
# T1 sequence (P0DMS8 whole entry): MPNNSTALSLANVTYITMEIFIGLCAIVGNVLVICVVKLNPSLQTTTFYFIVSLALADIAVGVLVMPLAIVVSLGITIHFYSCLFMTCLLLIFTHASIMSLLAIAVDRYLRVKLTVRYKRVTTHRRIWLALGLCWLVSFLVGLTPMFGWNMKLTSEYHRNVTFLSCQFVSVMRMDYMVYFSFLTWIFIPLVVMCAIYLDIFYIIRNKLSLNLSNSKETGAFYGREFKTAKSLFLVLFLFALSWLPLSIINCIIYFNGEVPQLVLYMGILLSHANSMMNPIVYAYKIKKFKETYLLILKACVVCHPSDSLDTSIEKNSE
# Assay: Displacement of [3H]MRE3008-F20 from human adenosine A3 receptor expressed in CHO cells after 120 mins
# Format: cell-based
row,Ki [pM],SMILES
1,501,CCCCn1cc2c(nc(NC(=O)Nc3ccc4c(c3)OCO4)n3nc(-c4ccco4)nc23)n1
2,240,Cn1cc2c(nc(NC(=O)Nc3ccc4c(c3)OCO4)n3nc(-c4ccco4)nc23)n1
3,794,CCn1cc2c(nc(NC(=O)Nc3ccc(OC)cc3)n3nc(-c4ccco4)nc23)n1
4,302,CCCn1cc2c(nc(NC(=O)Nc3ccc4c(c3)OCO4)n3nc(-c4ccco4)nc23)n1
5,912,CCn1cc2c(nc(NC(=O)Nc3cccc(Cl)c3)n3nc(-c4ccco4)nc23)n1
6,407000,CCn1cc2c(nc(N)n3nc(-c4ccco4)nc23)n1
7,331000,CCCn1cc2c(nc(N)n3nc(-c4ccco4)nc23)n1
8,4070,CCCCCCCCn1cc2c(nc(NC(=O)Nc3ccc(C)cc3)n3nc(-c4ccco4)nc23)n1
9,1580,CCCn1cc2c(nc(NC(=O)Nc3cccc(Cl)c3)n3nc(-c4ccco4)nc23)n1
10,269,CCn1cc2c(nc(NC(=O)Nc3ccc4c(c3)OCO4)n3nc(-c4ccco4)nc23)n1
